Laboratory results taken from ChEMBL document CHEMBL1201862, “PubChem BioAssay data set” (2004).
Active and inactive are the calls of the source.

Experiments:
[1] = HEp-2 cell cytotoxicity, dose response, cytotoxicity control for RSV inhibitor project, HTS (AID 2410); type: functional; settings: human respiratory syncytial virus
Trypsin = Trypsin (Sus scrofa, UniProt P00761); assay: porcine trypsin inhibitors, dose response, selectivity assay for Rce1 protease inhibitor project, biochemical, quenched peptide fluorescence, cherry-pick (AID 488789)
Sequence of Trypsin (P00761 whole entry): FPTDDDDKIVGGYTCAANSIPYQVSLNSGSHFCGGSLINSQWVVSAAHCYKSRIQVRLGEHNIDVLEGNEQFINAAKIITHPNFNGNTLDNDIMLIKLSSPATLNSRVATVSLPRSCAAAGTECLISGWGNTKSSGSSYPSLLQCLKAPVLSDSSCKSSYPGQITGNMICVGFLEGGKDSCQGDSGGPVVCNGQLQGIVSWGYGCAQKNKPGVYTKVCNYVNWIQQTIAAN

CAAX prenyl protease 1 = biological target: T1, CAAX prenyl protease 1 (Saccharomyces cerevisiae S288c, UniProt P47154); assay: Ste24 protease inhibitors, dose response, biochemical, S. cerevisiae, plate reader, cherry-pick (AID 488815)
T1 sequence (P47154 whole entry): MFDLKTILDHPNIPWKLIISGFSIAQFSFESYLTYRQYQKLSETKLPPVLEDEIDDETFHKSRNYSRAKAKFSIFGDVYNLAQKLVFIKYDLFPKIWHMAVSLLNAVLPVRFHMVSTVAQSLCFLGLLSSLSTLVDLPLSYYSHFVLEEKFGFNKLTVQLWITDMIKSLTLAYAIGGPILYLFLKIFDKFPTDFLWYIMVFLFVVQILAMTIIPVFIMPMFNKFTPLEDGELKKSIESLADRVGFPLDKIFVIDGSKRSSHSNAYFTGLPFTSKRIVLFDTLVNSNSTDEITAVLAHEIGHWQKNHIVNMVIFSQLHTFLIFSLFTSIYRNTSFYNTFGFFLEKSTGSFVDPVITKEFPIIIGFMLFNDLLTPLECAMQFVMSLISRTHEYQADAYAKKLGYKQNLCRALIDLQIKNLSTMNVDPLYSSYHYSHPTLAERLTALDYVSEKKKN

Vero = assay: cells; type: functional; settings: Chlorocebus sabaeus
CAAX prenyl protease 2 = biological target: T2, CAAX prenyl protease 2 (Homo sapiens, UniProt Q9Y256); assay: human Rce1 protease inhibitors, dose response, biochemical, yeast membranes, quenched-peptide fluorescence, cherry-pick (AID 588849)
T2 sequence (Q9Y256 whole entry): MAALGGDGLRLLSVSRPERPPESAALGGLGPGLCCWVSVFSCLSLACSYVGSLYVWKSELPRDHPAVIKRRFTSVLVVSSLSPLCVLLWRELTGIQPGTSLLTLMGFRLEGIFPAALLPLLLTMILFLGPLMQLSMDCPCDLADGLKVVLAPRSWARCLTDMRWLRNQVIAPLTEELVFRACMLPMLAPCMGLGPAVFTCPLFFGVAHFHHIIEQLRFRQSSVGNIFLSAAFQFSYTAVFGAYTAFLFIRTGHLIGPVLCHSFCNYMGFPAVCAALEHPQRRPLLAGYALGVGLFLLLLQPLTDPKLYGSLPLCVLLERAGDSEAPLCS

[2] = biological target: SWI/SNF-related matrix-associated actin-dependent regulator of chromatin subfamily A member 2 (Homo sapiens, UniProt P51531); assay: Luminescence-based cell-based high throughput dose response assay to identify activators of the function of SWI/SNF related, matrix associated, actin dependent regulator of chromatin, subfamily a, member 2 (SMARCA2, BRM).; type: functional
Sequence of SWI/SNF-related matrix-associated actin-dependent regulator of chromatin subfamily A member 2 (P51531 whole entry): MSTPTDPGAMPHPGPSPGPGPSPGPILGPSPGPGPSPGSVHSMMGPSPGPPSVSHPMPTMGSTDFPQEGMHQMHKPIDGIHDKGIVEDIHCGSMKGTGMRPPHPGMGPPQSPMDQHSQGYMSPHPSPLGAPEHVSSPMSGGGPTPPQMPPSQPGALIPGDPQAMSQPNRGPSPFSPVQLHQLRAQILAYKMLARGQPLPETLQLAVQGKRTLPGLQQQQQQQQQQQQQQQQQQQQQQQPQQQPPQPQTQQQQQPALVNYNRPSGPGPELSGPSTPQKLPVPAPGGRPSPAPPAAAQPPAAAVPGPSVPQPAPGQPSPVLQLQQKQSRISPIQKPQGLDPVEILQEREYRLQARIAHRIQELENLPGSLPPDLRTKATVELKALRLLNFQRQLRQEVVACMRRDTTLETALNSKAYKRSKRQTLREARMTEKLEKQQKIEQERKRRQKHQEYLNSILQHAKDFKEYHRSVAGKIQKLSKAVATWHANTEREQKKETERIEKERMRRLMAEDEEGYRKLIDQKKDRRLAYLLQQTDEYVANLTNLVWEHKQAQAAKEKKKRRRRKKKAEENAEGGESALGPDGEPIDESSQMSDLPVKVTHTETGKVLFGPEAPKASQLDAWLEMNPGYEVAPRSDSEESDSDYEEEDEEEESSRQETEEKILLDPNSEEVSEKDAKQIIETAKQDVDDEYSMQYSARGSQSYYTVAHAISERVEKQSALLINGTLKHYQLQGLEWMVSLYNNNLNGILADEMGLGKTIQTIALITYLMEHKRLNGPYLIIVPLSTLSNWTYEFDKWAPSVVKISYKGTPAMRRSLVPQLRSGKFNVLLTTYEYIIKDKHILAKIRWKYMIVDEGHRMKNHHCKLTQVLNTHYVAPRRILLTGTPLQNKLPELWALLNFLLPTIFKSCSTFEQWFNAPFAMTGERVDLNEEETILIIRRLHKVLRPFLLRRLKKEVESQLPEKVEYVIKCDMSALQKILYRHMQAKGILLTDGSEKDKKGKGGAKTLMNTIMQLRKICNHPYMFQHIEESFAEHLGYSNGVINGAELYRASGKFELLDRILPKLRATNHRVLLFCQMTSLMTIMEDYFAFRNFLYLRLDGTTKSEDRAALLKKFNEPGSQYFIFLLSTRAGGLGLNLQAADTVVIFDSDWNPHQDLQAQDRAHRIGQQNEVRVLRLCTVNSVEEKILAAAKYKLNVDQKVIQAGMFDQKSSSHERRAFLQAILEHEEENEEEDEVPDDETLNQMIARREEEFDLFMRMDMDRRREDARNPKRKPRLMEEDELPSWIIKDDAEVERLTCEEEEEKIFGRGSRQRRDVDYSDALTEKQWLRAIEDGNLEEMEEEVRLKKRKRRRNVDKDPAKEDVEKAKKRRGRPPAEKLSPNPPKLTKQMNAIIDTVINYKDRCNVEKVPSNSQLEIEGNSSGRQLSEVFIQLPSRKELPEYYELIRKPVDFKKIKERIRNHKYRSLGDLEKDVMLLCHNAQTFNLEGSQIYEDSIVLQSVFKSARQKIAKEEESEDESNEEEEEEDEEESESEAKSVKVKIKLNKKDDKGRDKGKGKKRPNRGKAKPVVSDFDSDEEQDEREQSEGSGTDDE

[3] = Counterscreen for activators of the function of SWI/SNF related, matrix associated, actin dependent regulator of chromatin, subfamily a, member 2 (SMARCA2, BRM): Luminescence-based cell-based high throughput dose response assay to identify non-selective compounds using the VP16 reporter assay.; type: functional
[4] = NIH-3T3 fibroblast cytotoxicity, dose response, cytotoxicity control, cell-based, fluorescence, Alamar Blue, secondary assay (AID 2327); type: functional;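 note: NIH-3T3 mouse fibroblasts cultured with fluconazole at 8 µg/mL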
cells [5] = type: functional, cell-based
[6] = C. albicans growth with fluconazole, confirmation, fluorescence, retest (AID 2467); type: functional, cell-based
[7] = inhibitors of intracellular T. cruzi replication, confirmation, NIH3T3 host cells, beta-gal luminescence (AID 2044); type: functional, cell-based;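 note: intracellular parasites grown in NIH/3T3 mouse fibroblasts as host cells; luminescent beta-galactosidase reporter signal from transgenic T. cruzi replicating inside host cells; inhibitors lower the luminescence signal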
cells [8] = type: functional, cell-based; remark: listed apart in the source
[9] = cytotoxicity toward NIH3T3 fibroblasts, dose response, counter-screen, cell-based, ATP luminescence, mouse fibroblasts (AID 2010); type: functional;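 note: cells exposed to compound for about 90 hours before reading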
Exodeoxyribonuclease V = biological target: T3, Exodeoxyribonuclease V (Escherichia coli (strain K12), UniProt P04993+P07648+P08394); assay: E. coli RecBCD inhibitors, dose response, counter-screen for AddAB inhibitor project, absorbance, V66 E. coli, mutant T4 phage (AID 492957); type: functional, cell-based, Escherichia coli str. K-12 substr. MG1655
T3 sequence (P04993 whole entry): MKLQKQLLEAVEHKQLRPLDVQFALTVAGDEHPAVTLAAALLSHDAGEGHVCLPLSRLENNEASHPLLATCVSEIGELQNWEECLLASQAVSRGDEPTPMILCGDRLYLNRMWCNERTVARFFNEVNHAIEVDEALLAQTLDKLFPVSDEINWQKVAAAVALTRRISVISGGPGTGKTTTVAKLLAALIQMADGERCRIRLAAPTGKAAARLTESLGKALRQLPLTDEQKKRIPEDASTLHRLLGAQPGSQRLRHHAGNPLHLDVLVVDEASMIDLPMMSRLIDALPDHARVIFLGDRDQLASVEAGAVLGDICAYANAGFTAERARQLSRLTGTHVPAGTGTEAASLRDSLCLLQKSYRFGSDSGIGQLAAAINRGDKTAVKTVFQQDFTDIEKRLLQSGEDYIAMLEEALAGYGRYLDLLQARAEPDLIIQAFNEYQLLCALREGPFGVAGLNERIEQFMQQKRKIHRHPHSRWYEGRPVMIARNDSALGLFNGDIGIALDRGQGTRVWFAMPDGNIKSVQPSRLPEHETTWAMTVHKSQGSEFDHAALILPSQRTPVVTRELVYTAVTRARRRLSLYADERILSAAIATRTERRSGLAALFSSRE
T3 sequence (P07648 whole entry): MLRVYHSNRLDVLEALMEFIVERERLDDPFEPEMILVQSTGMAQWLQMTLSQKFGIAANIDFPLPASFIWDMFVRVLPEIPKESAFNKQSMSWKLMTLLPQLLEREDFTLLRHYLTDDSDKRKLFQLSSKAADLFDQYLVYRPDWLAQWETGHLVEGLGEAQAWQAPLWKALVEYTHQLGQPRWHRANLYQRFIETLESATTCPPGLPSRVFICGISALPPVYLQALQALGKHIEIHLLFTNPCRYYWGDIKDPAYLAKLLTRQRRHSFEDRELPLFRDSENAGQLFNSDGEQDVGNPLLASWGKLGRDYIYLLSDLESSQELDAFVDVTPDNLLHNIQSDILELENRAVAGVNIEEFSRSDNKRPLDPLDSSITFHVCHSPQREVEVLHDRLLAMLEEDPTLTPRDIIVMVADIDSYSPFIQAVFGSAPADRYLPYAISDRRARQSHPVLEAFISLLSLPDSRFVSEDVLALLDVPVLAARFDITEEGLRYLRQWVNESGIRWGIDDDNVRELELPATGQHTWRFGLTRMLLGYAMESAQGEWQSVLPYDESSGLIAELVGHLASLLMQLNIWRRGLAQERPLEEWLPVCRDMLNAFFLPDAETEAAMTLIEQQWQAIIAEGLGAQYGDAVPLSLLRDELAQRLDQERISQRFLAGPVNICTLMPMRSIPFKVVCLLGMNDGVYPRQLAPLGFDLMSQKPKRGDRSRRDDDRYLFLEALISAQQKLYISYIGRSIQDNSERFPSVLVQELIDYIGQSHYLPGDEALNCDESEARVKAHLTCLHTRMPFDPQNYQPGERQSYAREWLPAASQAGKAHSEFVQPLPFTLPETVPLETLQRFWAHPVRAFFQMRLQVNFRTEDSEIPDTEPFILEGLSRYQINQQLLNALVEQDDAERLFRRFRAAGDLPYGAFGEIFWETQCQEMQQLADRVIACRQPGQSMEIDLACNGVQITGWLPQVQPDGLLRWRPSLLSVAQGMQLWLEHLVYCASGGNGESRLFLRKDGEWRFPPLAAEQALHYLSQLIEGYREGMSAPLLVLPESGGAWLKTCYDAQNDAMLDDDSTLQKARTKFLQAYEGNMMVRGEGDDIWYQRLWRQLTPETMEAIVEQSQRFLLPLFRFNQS
T3 sequence (P08394 whole entry): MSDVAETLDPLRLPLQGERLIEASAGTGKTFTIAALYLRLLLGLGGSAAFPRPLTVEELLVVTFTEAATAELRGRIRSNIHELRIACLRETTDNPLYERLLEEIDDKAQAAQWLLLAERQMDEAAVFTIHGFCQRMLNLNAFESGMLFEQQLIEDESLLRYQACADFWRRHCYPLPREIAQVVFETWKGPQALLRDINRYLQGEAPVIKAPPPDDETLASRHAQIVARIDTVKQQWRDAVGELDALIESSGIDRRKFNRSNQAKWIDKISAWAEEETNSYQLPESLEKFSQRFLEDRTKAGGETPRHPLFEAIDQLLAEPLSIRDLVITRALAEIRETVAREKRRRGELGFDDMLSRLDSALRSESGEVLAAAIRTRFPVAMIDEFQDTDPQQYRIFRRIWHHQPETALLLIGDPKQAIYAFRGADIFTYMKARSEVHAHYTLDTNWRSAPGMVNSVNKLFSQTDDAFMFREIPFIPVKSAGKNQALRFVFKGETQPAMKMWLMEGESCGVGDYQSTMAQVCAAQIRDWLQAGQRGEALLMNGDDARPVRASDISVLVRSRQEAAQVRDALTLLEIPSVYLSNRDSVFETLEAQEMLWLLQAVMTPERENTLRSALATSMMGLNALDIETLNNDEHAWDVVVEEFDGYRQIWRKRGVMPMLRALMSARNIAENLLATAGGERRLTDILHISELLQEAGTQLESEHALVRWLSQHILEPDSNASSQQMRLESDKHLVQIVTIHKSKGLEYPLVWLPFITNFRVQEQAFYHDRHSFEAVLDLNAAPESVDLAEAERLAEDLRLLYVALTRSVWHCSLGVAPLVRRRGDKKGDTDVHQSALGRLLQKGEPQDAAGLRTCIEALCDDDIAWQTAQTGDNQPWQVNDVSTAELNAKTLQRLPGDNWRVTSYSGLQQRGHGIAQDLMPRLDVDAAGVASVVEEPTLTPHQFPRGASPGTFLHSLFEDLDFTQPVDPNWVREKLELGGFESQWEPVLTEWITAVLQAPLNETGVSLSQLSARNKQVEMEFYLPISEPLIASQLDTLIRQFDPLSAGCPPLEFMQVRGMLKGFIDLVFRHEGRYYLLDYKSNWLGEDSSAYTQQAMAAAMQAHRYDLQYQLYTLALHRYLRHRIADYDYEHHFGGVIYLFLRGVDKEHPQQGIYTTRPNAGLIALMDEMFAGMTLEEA

[10] = Counterscreen for AddAB inhibitors: absorbance-based bacterial cell-based high throughput dose response assay for inhibitors of bacterial viability. [Related pubchem assays (depositor defined):AID435030, AID449728, AID449731, AID488942, AID488955, AID488956]; type: functional
HEK293 = assay: inhibitors of LMP1-driven NF-kB reporter, dose response, cell-based, HEK293, luciferase, cherry-pick (AID 588343); type: functional; settings: Homo sapiens
[11] = biological target: Heat shock protein HSP 90-alpha (Homo sapiens, UniProt P07900); type: functional, organism-based
INS1 = assay: beta cell apoptosis inhibitors, cytokine rescue, dose response, luminescence, retest (AID 449756); type: functional, cell-based; settings: Rattus norvegicus;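 note: cell death triggered by IL-1 beta plus TNF-alpha plus IFN-gamma mixture; protective hits raise ATP signal compared with cytokine alone wells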
[12] = Shn3 3'UTR reporter inhibitors, dose response, cell-based, Clone20 osteoblasts, firefly luciferase, cherry-picked (AID 624132); type: functional;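 note: firefly luciferase luminescence from reporter carrying the Shn3 3'UTR in osteoblasts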
[13] = HepG2 cell cytotoxicity, dose response, cytotoxicity control for Shn3 inhibitor project, CellTiter-Glo, cherry-picked (AID 624134); type: functional, cell-based
[14] = control 3'UTR Renilla luciferase suppression, dose response, counter-screen for Shn3 inhibitor project, cell-based, Clone20-Shn3RL, cherry-picked (AID 624133); type: functional

NS(=O)(=O)c1ccc(N/N=C/c2cn(-c3ccccc3)nc2-c2cccs2)cc1
CC50 [1]: 12.2 µM (active) | AC50 (Trypsin): 7.03 µM (active) | AC50 (CAAX prenyl protease 1): 7.44 µM (active) | CC50 (Vero): 11.3 µM (active) | AC50 (CAAX prenyl protease 2): 16.7 µM (active) | EC50 [2]: > 91.2 µM (inactive) | EC50 [3]: > 91.2 µM (inactive)

CCC(=O)NC(c1ccc(Cl)cc1Cl)c1ccc2cccnc2c1O (stereo unspecified)
EC50 [4]: 3.86 µM (inconclusive) | EC50 (cells [5]): 7.3 µM (active) | EC50 [6]: 0.354 µM (active) | EC50 [7]: 0.296 µM (active) | EC50 (cells [8]): > 350 µM (not active) | EC50 [9]: 0.434 µM (active) | IC50 (Exodeoxyribonuclease V): > 119 µM (inactive) | IC50 [10]: > 119 µM (inactive) | AC50 (HEK293): 4.55 µM (active) | AC50 [11]: 3.22 µM (active) | AC50 (INS1): 0.478 µM (active) | AC50 [12]: 1.19 µM (active) | AC50 [13]: 28.8 µM (active) | AC50 [14]: 1.33 µM (active)
